These results are taken from patent publication US12139717B2, “Improving plant regeneration” (KWS SAAT SE & Co. KGaA, priority 2019, dated 2024).

The structures appear in SMILES notation. “Also recorded” adds a separate entry of the source.

In one test the test system is sugar beet leaf explants. As to the kind of experiment: Sugar beet callus induction from leaf explants in callus induction medium. It counts as cell-based. Further details: key to Callus induction effect: −: no callus induction effect; +: modest callus induction effect; ++: strong callus induction effect. The conditions noted are these: for callus induction in recalcitrant genotype A (FIG. 3): DMSO control. The procedure:
1. Micropropagated shoots of various proprietary genotypes were used as starting material: Genotypes A and B are recalcitrant to callus induction and plant regeneration. […] Therefore, such calli were never transformable.
Genotype C is less recalcitrant. Shoots were multiplied in MS salts+30 g/l sucrose and 0.25 mg/l benzyladenine (BAP).
2. To induce friable callus, leaf explants were isolated from micropropagated shoots and incubated in callus induction medium (CIM) containing MS salts including 15 g/I sucrose and 2 mg/l BAP at 28° C. for 7 to 8 weeks. […] HP is Hyperphyllin, a small molecule with the chemical formula N-[4-Amino-2-chlorophenyl]-2,4-dichlorobenzamide (CAS #: 42480-64-8).
After incubation period the induction and formation of callus has been analysed. […] There is no significant difference in induction efficiency between these two concentrations.

The subject of a further test is Arabidopsis thaliana. The following applies: Poretska et al. 2016; cited from earlier work.
The subject of a further test is sugar beet friable calli. The test can be described thus: Sugar beet shoot induction and plant regeneration from induced calli. The following applies: calli induced with vs without HP. The format is cell-based. The method, then: 3. Friable calli of step 2 were harvested from the induction and transferred to the shoot induction medium containing MS salts, 30 g/l sucrose, 1 mg/l GA3 and 1 mg/l Thidiazuron (TDZ). The calli were incubated at 24° C. in the light/dark cycle (16 h/8 h) for 1 to 2 weeks. 4. Regenerated shoots were mounted and cultured in the medium of step 1. The plants are grown at 24° C. in the light/dark cycle (16 h/8 h).

In another test the test system is sugar beet callus. The test can be described thus: Agrobacteria-mediated transformation of HP induced sugar beet callus. It counts as cell-based. The conditions noted are these: recalcitrant genotype; 70s::tDT construct; seven days after infection. The method, then:
a. Sugar beet calli were induced as described in steps 1 and 2.
b. Friable calli were mounted in medium containing MS salts, 30 g/l sucrose, 1 mg/l GA3 and 1 mg/l Thidiazuron (TDZ), and kept for 1 week in the dark, 24° C.
c. Agrobacterium AGL-1 harbouring the vector pZFN-nptII-70s::AtGRF5 and pZFN-nptII-70s::tDT was grown in medium (5 g/l tryptone+2.5 g/l yeast extract+1 g/l NaCl+5 g/l mannitol+0.1 g/l MgSO4×7H2O+0.25 g/l KH2PO4+1 g/l glutamic acid, pH 7.0) supplemented with the appropriate antibiotics, at 28° C., for 24 h.
d. Calli were inoculated with Agrobacterium suspension (medium: 440 mg/l CaCl2×2H2O+170 mg/l KH2PO4+1.9 g/l KNO3+180.7 mg/l MgSO4+1.65 g/l NH4NO3+2 mg/l BAP+40 μg/l Acetosyringone+20 g/l sucrose+2 g/l glucose, pH 6.0) at an OD600 of 0.8. The callus tissue and the Agrobacterium were incubated in medium comprising 440 mg/l CaCl2×2H2O, 170 mg/l KH2PO4, 1.9 g/l KNO3, 180.7 mg/l MgSO4, 1.65 g/l NH4NO3, 2 mg/l BAP, 40 μg/l Acetosyringone, 20 g/l sucrose and 2 g/l glucose, at 21° C. for 3 days in the dark.
e. Calli were sub-cultured to medium comprising MS salts, 30 g/l sucrose, 1 mg/l GA3, 1 mg/l TDZ and 500 mg/l Timentin, and incubated in the dark, at 24° C. for 1 week.
f. […]

In the case of `O=C(Nc1ccccc1)c1c(F)cccc1Cl` [HP derivate A2], the “callus inducing effect (in words)” value in the test with sugar beet leaf explants (30 μM) was “strong callus-inducing effect”; in the test with sugar beet leaf explants (50 μM), “weak effect”. In addition, the Callus induction effect result in the test on sugar beet leaf explants (30 μM dissolved in 2 ml/L DMSO) is listed as “++”; in the test on sugar beet leaf explants (50 μM dissolved in 2 ml/L DMSO), “+”. In the test with sugar beet leaf explants (50 μM as printed in legend, control without HP treatment), the “callus induction in recalcitrant genotype (FIG. 9)” value is “promotes callus induction”. Besides, the leaf formation rate entry in the test on Arabidopsis thaliana is reported as “enhance leaf formation rate”.

Turning to `Nc1ccc(NC(=O)c2ccc(Cl)cc2Cl)c(Cl)c1` [HP, N-[4-Amino-2-chlorophenyl]-2,4-dichlorobenzamide], the “callus inducing effect (in words)” value with sugar beet leaf explants (10 μM) is “modest effect”; in the test on sugar beet leaf explants (30 μM), “strong callus inducing effect”; in the test on sugar beet leaf explants (50 μM), “strong callus inducing effect”; in the test with sugar beet leaf explants (100 μM), “modest effect”; in the test with sugar beet leaf explants (higher concentration (500 μM, 1 mM)), “no effect”. Further, the Callus induction effect entry is “+” in the test on sugar beet leaf explants (10 μM dissolved in 2 ml/L DMSO); “++” in the test with sugar beet leaf explants (30 μM dissolved in 2 ml/L DMSO); “++” with sugar beet leaf explants (50 μM dissolved in 2 ml/L DMSO); “+” in the test on sugar beet leaf explants (100 μM dissolved in 2 ml/L DMSO); “−” in the test on sugar beet leaf explants (500 μM dissolved in 2 ml/L DMSO); “−” with sugar beet leaf explants (1 mM dissolved in 2 ml/L DMSO). For the same compound, the “amount of callus tissue induced from leaves (FIG. 5)” value in the test on sugar beet leaf explants (30 μM vs control without HP) is given as “much more amount of callus tissue”. Besides, the “callus induction in recalcitrant genotype A (FIG. 3)” value with sugar beet leaf explants (30 μM) is “dramatically promotes callus induction; also recorded: promotes callus formation”; in the test on sugar beet leaf explants (50 μM), “promotes callus formation”. For the same compound, the “callus induction efficiency with vs without HP (FIG. 4)” value in the test with sugar beet leaf explants (recalcitrant genotypes A and B) is listed as “boosting effect”. The “plants regenerated from induced callus (FIG. 6)” value with sugar beet friable calli is “More plants could be regenerated”. Besides, the “Agrobacterium infection of HP induced callus (FIG. 7)” value with sugar beet callus is recorded as “can be infected by agrobacteria”. In the test with Arabidopsis thaliana, the leaf formation rate entry is “enhance leaf formation rate”.

Consider `O=C(Nc1ccccc1)c1ccccc1Cl` [HP derivate A3], for which the leaf formation rate result with Arabidopsis thaliana was “enhance leaf formation rate”.

Take `O=C(Nc1c(F)cccc1F)c1ccc(Cl)cc1` [HP derivate A1]: the “callus inducing effect (in words)” value in the test on sugar beet leaf explants (30 μM) is given as “worked”. Moreover, the Callus induction effect result in the test on sugar beet leaf explants (30 μM dissolved in 2 ml/L DMSO) is recorded as “+”; in the test with sugar beet leaf explants (50 μM dissolved in 2 ml/L DMSO), “−”. Moreover, the leaf formation rate result in the test on Arabidopsis thaliana is given as “enhance leaf formation rate”.
